Patent publication US20100047173A1, “Methods for Using Optical Agents” (priority 2006, published 2010)

Tests used:
[1] = Open-surgery fluorescence imaging of the cystic duct after IV fluorescein; format: in vivo; settings: anesthetized pig, approximately 80 minutes post-IV administration of 6 mL of 20 mg/mL fluorescein in PBS
Protocol: FIG. 1 depicts green fluorescence from fluorescein traveling through a cystic duct in an anesthetized pig. The image was taken during open surgery, post-IV administration of 6 mL of a 20 mg/mL concentration of fluorescein in PBS.
The image was taken during open surgery, approximately 80 minutes post-IV administration of 6 mL of a 20 mg/mL concentration of fluorescein in PBS. The pig weighed about 82 pounds.

[2] = Ex-vivo continuous wave fluorescence imaging of caecum and lower large intestine after IV ICG; format: in vivo; settings: rat, post-IV administration of aqueous ICG solution, 780 nm excitation, 830 nm detection
Protocol: ICG in powdered form was obtained from Sigma (St. Louis, Mo.). Solutions were made by diluting the appropriate amount of ICG in 10 mL of distilled water. Concentrations less than 1 mM were made by serial dilution of a 1 mM stock solution.
The animals were anesthetized with rat cocktail (xylazine; ketamine; acepromazine 1.5: 1.5: 0.5) at 0.8 mL/kg via intraperitoneal injection. A 21 gauge butterfly infusion set equipped with a stopcock and two syringes containing heparinized saline was placed into the lateral tail vein of the rat. Patency of the vein was checked prior to administration of the agent via the butterfly apparatus.
A simple noninvasive in vivo continuous wave fluorescence imaging apparatus was employed as described below. Light from a LaserMax Inc. laser diode of nominal wavelength 780 nm and nominal power of 40 mW was launched into a fiber optic bundle. A defocusing lens in position after the bundle expanded the beam such that most of the rat was illuminated. The laser power at the output of the bundle was approximately one half of the input power. […]
The above imaging system may also used to view and quantify ex-vivo organs and tissues. […] Blue is indicative of high fluorescence, and red is indicative of low fluorescence.

[3] = In vivo fluorescence time dependence at the ear after ICG bolus (blood clearance by the liver), normal vs partially hepatectomized rats; set-up: species or system rat
Protocol: ICG in powdered form was obtained from Sigma (St. Louis, Mo.). Solutions were made by diluting the appropriate amount of ICG in 10 mL of distilled water. Concentrations less than 1 mM were made by serial dilution of a 1 mM stock solution. For ICG fluorescence detection, a nominal 780 nm collimated solid state laser source was employed (LaserMax Inc. model No. LAS-300-780-5). The laser source was directed into the end of a 3.2 mm diameter glass fiber optic bundle (Oriel No. 77526). The other end of this laser delivery bundle was placed approximately 1 cm from the rat ear at an approximate 45° angle. A second similar fiber optic bundle for use as the fluorescence detection conduit was placed approximately 1 cm from the ear at an approximate 30° angle. The exit end of the detection fiber bundle was positioned at the focal length of a 20 mm focal length lens. […] A digital voltmeter monitored the output signal. […]
Female Fischer 344 rats weighing 173-195 g were used. […] The dye was subsequently administered via the indwelling catheter, and the clearance of the agent monitored. […]
To verify that the fluorescence decay curves were related to liver function, and to assess this methodology's feasibility to determine impaired liver function, the following experiment was done. […] A measurement of the time dependence of fluorescence at the ear pre- and post-bolus injection of the ICG solution was measured next. […]

SMILES | appearance of fluorescence in the cystic duct [1] | fluorescence of feces in ex-vivo intestine (hepatobiliary excretion) [2] | fluorescence decay time, impaired liver function versus normal liver function ([3]; partially hepatectomized rats (33%-38% of liver ligated) vs normal rat, single exponential fit) | loss of initial fluorescence signal at the ear ([3]; rat, after about 15 minutes post-bolus injection of 500 mL of 1.007 mM ICG solution (FIG. 3))
O=C1OC2(c3ccc(O)cc3Oc3cc(O)ccc32)c2ccccc21 [fluorescein] | fluorescence from fluorescein traveling through the cystic duct |  |  | 
CC1(C)C(/C=C/C=C/C=C/C=C2\N(CCCCS(=O)(=O)[O-])c3ccc4ccccc4c3C2(C)C)=[N+](CCCCS(=O)(=O)[O-])c2ccc3ccccc3c21.[Na+] [ICG] |  | feces that fluoresce due to the ICG within | almost an order of magnitude longer | approximately 90%
